Tested on: E-Box DNA
Type: binding
Details: pH 8

Substance	Binding to E-Box DNA in EMSA (in words)	Kd (read-out: KD for E-Box DNA measured by EMSA) [nM]
(AcATEENVKRRTHNVLERQRRNELKRSFFG)2K (sidechain bridge or staple) [MiniMYC 1]	no binding	–
(AcATEENVKRRTHNVLERQRRNELKRSSCFA)2-Linker (sidechain bridge or staple) [MiniMYC 3]	did not show any specific association	–
(AcVKRRTHNVLERQRRNELKRSFFALRDQIPELENNEKAPKVVILKKATAYILSAβC)2-linker (sidechain bridge or staple) [DuoMYC 7]	–	~174

— paper PMC11753601 (Angewandte Chemie (International Ed. in English), 2024)
